We go through 23 compounds from ChEMBL document CHEMBL4811316, “Larvicidal activity and in silico studies of cinnamic acid derivatives against Aedes aegypti (Diptera: Culicidae)” (Bioorg Med Chem, 2021).

The nature of series [1]: Larvicidal activity against Aedes aegypti assessed as mortality at 45 ug/ml measured after 24 hrs relative to control. It counts as ADME. To be noted: at 45 µg/mL.
Series [2] in a line: Larvicidal activity against Aedes aegypti 4th instar larvae measured after 48 hrs. It counts as ADME.
Series [3] is described as follows: Larvicidal activity against Aedes aegypti assessed as mortality at 100 ug/ml measured after 24 hrs relative to control. It counts as ADME. To be noted: at 100 µg/mL.
Series [4] in a line: Retention time of the compound. It counts as physicochemical.
Series [5] is described as follows: Drug recovery in Aedes aegypti larval extract by HPLC analysis. Format: ADME. To be noted: 24 h.
Series [6] in a line: Drug recovery in Aedes aegypti supernatant measured after 24 hrs by HPLC analysis. It counts as ADME.
Series [7] is described as follows: Toxicity in Aedes aegypti assessed as rigid and elongated exoskeleton at 50 ug/ml. Particulars: dose 50 µg/ml.
Series [8] in a line: Toxicity in Aedes aegypti assessed as reduction in body mass at 50 ug/ml. To be noted: dose 50 µg/ml.
Series [9] in a line: Toxicity in Aedes aegypti assessed as appearance of dark spots in thorax region at 50 ug/ml. To be noted: dose 50 µg/ml.
The nature of series [10]: Toxicity in Aedes aegypti assessed as appearance of dark spots in intestine region at 50 ug/ml. It counts as tissue-based. Particulars: dose 50 µg/ml.
Series [11] is described as follows: Toxicity in Aedes aegypti assessed as appearance of dark spots in siphon region at 50 ug/ml. Particulars: dose 50 µg/ml.
A short description of series [12]: Toxicity in Aedes aegypti assessed as abdomen curvature at 50 ug/ml. Particulars: dose 50 µg/ml.
Series [13] in a line: Toxicity in Aedes aegypti assessed as modifications in anal papillae at 50 ug/ml. Particulars: dose 50 µg/ml.
Series [14] is described as follows: Toxicity in Aedes aegypti assessed as translucent in anal papillae at 50 ug/ml. Particulars: dose 50 µg/ml.

Values after ≈ are worked out from the molar mass of the structure shown.

Take `COc1ccc(/C=C/C(=O)O)cc1` [4-METHOXYCINNAMIC ACID]: in series [1], the mortality is reported as 0%.

Consider `CCOC(=O)/C=C/c1ccc(Cl)cc1Cl` [ETHYL 3-(2,4-DICHLOROPHENYL)ACRYLATE], for which the mortality in [1] is 86.7%. In [2], this compound returned an LC10 of 10.2 µg/mL (≈ 41.6 µM), an LC50 of 23.6 µg/mL (≈ 96.3 µM) and an LC90 of 54.8 µg/mL (≈ 224 µM).

Take `CCOC(=O)/C=C/c1ccc(C(C)(C)C)cc1`: the mortality in series [1] is 40%.

As to `O=C(O)/C=C/c1ccc(Cl)cc1`, the mortality in series [1] is 95%. For the same compound, the mortality in [3] stood at 100%. Further, in series [2], the LC10 was 16.2 µg/mL (≈ 88.7 µM), the LC50 came out at 26 µg/mL (≈ 142 µM) and the LC90 was determined as 41.8 µg/mL (≈ 229 µM). This compound also showed a Retention_time in series [4] of 3.32 min. Also, the Drug recovery in [5] was found to be 2.7143 µg/mL. This compound returned a Drug recovery in [6] of 3.8191 µg/mL.

Regarding `COP(=S)(OC)Oc1ccc(Sc2ccc(OP(=S)(OC)OC)cc2)cc1` [TEMEFOS], in series [2], the LC10 amounted to 1.8 µg/mL (≈ 3.86 µM), the LC50 amounted to 4.4 µg/mL (≈ 9.43 µM) and the LC90 was found to be 10.4 µg/mL (≈ 22.3 µM).

For `CCOC(=O)/C=C/c1ccc(F)cc1`, the mortality in series [1] came to 83.3%. In series [2], this compound gave an LC10 of 24 µg/mL (≈ 124 µM), a median lethal concentration (LC50) of 32.2 µg/mL (≈ 166 µM) and an LC90 of 43.2 µg/mL (≈ 222 µM).

`O=C(O)/C=C/c1ccc([N+](=O)[O-])cc1`: the mortality in [1] was 86.7%. The mortality in series [3] is on record as 96.7%. Further, in [2], the LC10 is 29 µg/mL (≈ 150 µM), the LC50 is 37.1 µg/mL (≈ 192 µM) and the LC90 was determined as 47.5 µg/mL (≈ 246 µM).

For `CCOC(=O)/C=C/C=C/c1ccccc1`, the mortality in series [1] is 93.3%. In series [2], the LC10 came out at 10 µg/mL (≈ 49.4 µM), the median lethal concentration (LC50) turned out to be 19.7 µg/mL (≈ 97.4 µM) and the LC90 was 38.8 µg/mL (≈ 192 µM).

Turning to `CCOC(=O)/C=C/c1ccc(OC)cc1` [4-METHOXY ETHYL CINNAMATE], the mortality in [1] was 80%. For the same compound, in series [2], the LC10 was found to be 18.2 µg/mL (≈ 88.2 µM), the LC50 amounted to 26.9 µg/mL (≈ 130 µM) and the LC90 turned out to be 39.7 µg/mL (≈ 192 µM).

On to `O=C(O)/C=C/c1ccccc1` [CINNAMIC ACID], for which the mortality in [1] was found to be 0%; in series [3] it was 28.3%.

Turning to `CCOC(=O)/C=C/c1ccc(OC(F)(F)F)cc1`, the mortality in series [1] is reported as 93.3%. For the same compound, in [2], the LC10 stood at 19.6 µg/mL (≈ 75.3 µM), the LC50 was found to be 31.3 µg/mL (≈ 120 µM) and the LC90 was 50 µg/mL (≈ 192 µM).

Regarding `CCOC(=O)/C=C/c1ccc(Br)cc1`, the mortality in series [1] was determined as 100%. For the same compound, in [2], the LC10 is 18.9 µg/mL (≈ 74.1 µM), the LC50 was found to be 25.1 µg/mL (≈ 98.4 µM) and the LC90 was 33.3 µg/mL (≈ 131 µM).

For `CCOC(=O)/C=C/c1ccc(Cl)cc1` [ETHYL 3-(4-CHLOROPHENYL)ACRYLATE], the mortality in [1] is 100%. The LC10 in series [2] is 3.5 µg/mL (≈ 16.6 µM). In series [2], the 50% lethal concentration (LC50) turned out to be 8.3 µg/mL (≈ 39.4 µM). For the same compound, the LC90 in [2] amounted to 19.7 µg/mL (≈ 93.5 µM). Also, in [4], the Retention_time came out at 3.61 min. Moreover, the figures for the Drug recovery in series [5] and in series [6] were 8.2531 µg/mL and 10.8746 µg/mL, respectively. The Activity entry in series [7], in [8], in series [9], in [10], in [11] and in series [12] was “Toxic” each time. Further, the Activity entry in series [13] and in series [14] was “Toxic” each time.

`CCOC(=O)/C=C/c1ccc([N+](=O)[O-])cc1`: the mortality in series [1] is given as 98.3%. In series [2], this compound yielded an LC10 of 21.3 µg/mL (≈ 96.3 µM), an LC50 of 35.7 µg/mL (≈ 161 µM) and an LC90 of 60 µg/mL (≈ 271 µM).

Turning to `O=C(O)/C=C/c1ccc(OC(F)(F)F)cc1`, in series [3], the mortality is recorded as 40%.

For the compound `CCOC(=O)/C=C/c1ccc(C(F)(F)F)cc1`, in series [1], the mortality came out at 98.3%. In addition, in [2], the LC10 turned out to be 11.1 µg/mL (≈ 45.5 µM), the LC50 is 21.6 µg/mL (≈ 88.4 µM) and the LC90 was 42.2 µg/mL (≈ 173 µM).

With `CCOC(=O)/C=C/c1ccc(N(C)C)cc1`, the mortality in series [3] was 6.7%.

Consider `O=C(O)/C=C/c1ccc(Br)cc1`, for which, in series [1], the mortality was found to be 36.7%. Moreover, in series [3], the mortality turned out to be 93.3%. Moreover, in series [2], the LC10 turned out to be 31.7 µg/mL (≈ 140 µM), the LC50 stood at 54.4 µg/mL (≈ 240 µM) and the LC90 is 93.2 µg/mL (≈ 410 µM).

For the compound `CCOC(=O)/C=C/c1ccccc1` [ETHYL CINNAMATE], the mortality in series [1] is reported as 95%. In series [2], this compound showed an LC10 of 30.4 µg/mL (≈ 173 µM), a 50% lethal concentration (LC50) of 35.6 µg/mL (≈ 202 µM) and an LC90 of 41.7 µg/mL (≈ 237 µM).

Consider `O=C(O)/C=C/c1ccc(F)cc1`, for which the mortality in series [3] amounted to 0%.

In the case of `CCOC(=O)/C=C/c1ccc(C#N)cc1`, the mortality in series [1] is listed as 8.3%.

`O=C(O)/C=C/c1ccc(C(F)(F)F)cc1`: the mortality in series [1] was determined as 0%. The mortality in [3] is 56.7%. In series [2], this compound registered an LC10 of 87.7 µg/mL (≈ 406 µM), a 50% lethal concentration (LC50) of 97.6 µg/mL (≈ 452 µM) and an LC90 of 108.6 µg/mL (≈ 502 µM).

As for `CCOC(=O)/C=C/c1ccc(O)cc1` [ETHYL P-COUMARATE], the mortality in series [1] is recorded as 0%.
